Ends that are not written are not given here.
How the values were obtained:
[1] = system: αIIbβ3 CHO K1 cells; assay: Ac-GXGDSC peptide array cell adhesion, αIIbβ3 CHO K1 cells; assay type: cell-based, human; conditions: 0.5% peptide spots; 300 μM cRGDFG
Protocol: (§1) Cysteine-terminated peptides were immobilized onto maleimide-presenting SAMs by adding 40 μL of 1 mM peptide solution to the biochip and incubating at 37° C. for 1 hour. Substrates were rinsed with DIUF water and ethanol and dried under a stream of nitrogen. αIIbβ3 CHO K1 cells were detached from culture plates with 1 mM EGTA/2 mM EDTA in PBS (phosphate-buffered saline), rinsed with serum-free F-12K medium, centrifuged and resuspended in serum-free F-12K medium supplemented with cRGDFG (SEQ ID NO: 12) (300 μM) and 1× penicillin/streptomycin. After 15-minute of incubation, cells (200,000/mL) were added to substrates in 24-well culture plates. After 2 hour incubation at 37° C. and 5% CO2, media was exchanged for F-12K medium supplemented with 10% FBS, 1× penicillin/streptomycin and cRGDFG (SEQ ID NO: 12) (300 μM). After 2 hours, the substrates were washed gently with warm PBS, and adherent cells were immediately fixed with 4% formaldehyde for 30 minutes, visualized with a 20× objective of a Zeiss Axiovert 200 inverted microscope, and photographed. For cell adhesion assays mediated by Ac-GXGDSC (SEQ ID NO: 26), αIIbβ3 CHO K1 cells were incubated on a 5×4 circle (1 mm diameter) array for 1 hour with serum-free F-12K medium supplemented with cRGDFG (SEQ ID NO: 12) (300 μM) and 1× penicillin/streptomycin, followed by media exchange to F-12K medium supplemented with 10% FBS, 1× penicillin/streptomycin and cRGDFG (SEQ ID NO: 12) (300 μM. The substrates were washed with warm PBS, and adherent cells were immediately fixed and permeabilized with 4% formaldehyde and 0.5% Triton-X for 30 minutes. Fixed cells were stained with DAPI, visualized and photographed with a 20× objective as described. The number of adherent cells per field of view was counted using Image J software. Cells were counted in at least three fields for each circle, and each experiment was repeated 3 times. The degree of adhesion is reported as a percentage of cells that adhere relative to control experiments with the peptide Ac-GRGDSC (SEQ ID NO: 28).
To further assay the binding of peptide ligands to the […] integrin for XGD peptide ligands, an array was used to assess the adhesion of cells to peptides having the arginine residue substituted with each amino acid other than cysteine (e.g., A, D, E, F, G, H, I, K, L, M, N, P, Q, R, S, T, V, W, and Y). The library of Ac-GXGDSC (SEQ ID NO: 26) peptides was synthesized and immobilized in an array with each peptide occupying a 1 mm diameter region of the monolayer (FIG. 61). A suspension of αIIbβ3 CHO K1 cells was applied to the entire array and cells were allowed to attach to regions presenting the various peptides. The substrates were then rinsed and stained with DAPI, and the cells were counted to determine the relative efficiency of cell attachment to peptides in the library. […] Substitution with leucine and isoleucine were also active, though at a lower level.

[2] = system: αIIbβ3 CHO K1 cells; assay: Cell adhesion assay: αIIbβ3 CHO K1 cells on SAMs presenting immobilized peptides; assay type: cell-based, human; conditions: 0.5% peptide SAM; in presence of 300 μM cRGDFG
Protocol: Monolayers were prepared as described (Houseman, et al., 2003). Glass coverslips were sonicated for 30 minutes in deionized ultrafiltered (DIUF) water and then 30 minutes in ethanol and then dried under a stream of nitrogen. Titanium (4 nm) and then gold (29 nm) were evaporated onto the coverslips using an electron beam evaporator (Boc Edwards) at a rate of 0.05-0.10 nm/s and at a pressure of 1 μTorr. The gold-coated coverslips were immersed in an ethanolic solution of maleimide-terminated disulfide (1%) and tri(ethylene glycol)-terminated disulfide (99%) overnight at room temperature. The total disulfide concentration was 1 mM. The substrates were washed with DIUF water, ethanol and then dried under a stream of nitrogen.
The pcDNA3.1 vectors that express human αIIb or β3, respectively, have been described previously (see e.g., Litvinov et al. (2006) Biochemistry, 45: 4957-4964). CHO K1, BHK 21 and HT1080 cells were purchased from ATCC. All CHO cells were cultured at 37° C. and 5% CO2 using F12K medium supplemented with 10% FBS and pen/strep. […] CHO K1 cells were transfected with αIIb and β3 cDNA with FuGENE following the supplier's protocol. Transfected cells were selected with 1 mg/mL zeocin and 1 mg/mL geneticin.
as §1
Monolayers were prepared that presented a mixture of maleimide groups and tri(ethylene glycol) groups with the former present at a density of 0.5% (relative to total alkanethiolate). The monolayers were treated with cysteine-terminated peptides to immobilize the ligands (FIG. 1A). In each case mass spectrometry was used to verify immobilization of the peptides in high yield (Su et al., 2002).
The adhesion and spreading of αIIbβ3 CHO K1 cells to monolayers presenting GRGDSC (SEQ ID NO: 11), HHLGGAKQAGDVC (SEQ ID NO: 21) and a mixture of both peptides was compared. […]

[3] = system: αIIbβ3 CHO K1 cells; assay: Blocking of αIIbβ3 CHO K1 cell adhesion to GRGDSC monolayer; assay type: cell-based, human; conditions: PAC-1 antibody together with cyclic peptide inhibitor cRGDFG
Source text: FIG. 2 depicts the results of FACS analyses and binding studies of a αIIbβ3 expressing CHO K1 cell line. […] Transfected αIIbβ3 CHO K1 cells express αIIbβ3 at the cell surface, as detected by anti-β3 and PAC-1 antibody (bottom) (the middle and right hand lanes show anti-β3 antibody and PAC-1 antibody binding, respectively). Panel B is a graph of the concentration of cRGDFG (SEQ ID NO: 12; where F is a D amino acid) versus adhesion of αIIbβ3 CHO K1 cells. The peptide cRGDFG (SEQ ID NO: 12), a cyclic peptide that specifically binds to α5 and αV integrins, inhibits CHO K1 cell adhesion to 0.5% GRGDSC (SEQ ID NO: 11) SAMs. Panels C-F are photomicrographs of cells adhering to GRGDSC (SEQ ID NO: 11).
CHO K1 cells were used that were transfected with the αIIbβ3 receptor, as described previously (Salsmann et al., 2005). Cells were transfected with pcDNA3.1 vectors that coded for αIIb and β3 using FuGENE6 and analyzed by FACS after labeling with the PAC-1 (anti-αIIbβ3) and H-96 (anti-β3) antibodies. Approximately 30% of the cells expressed the receptor (FIG. 2A). Because the CHO K1 cells also express αv and α5 integrins on their surfaces, adhesion experiments were performed in the presence of the cyclic peptide cRGDFG (SEQ ID NO: 12), where F is a D amino acid. […] All experiments that follow, unless stated otherwise, were performed in the presence of 300 μM cRGDFG (SEQ ID NO: 12).

[4] = target: T1, human αIIbβ3 integrin on transfected CHO K1 cells (human, UniProt P08514 32-1039; P05106 27-788); assay: adhesion of αIIbβ3 CHO cells to the peptide monolayer, 300 µM cRGDFG present
T1 construct: whole, on cells; CHO K1 cells transfected with human αIIb and β3 cDNA; about 30% of the cells expressed the receptor; also called platelet receptor; platelet integrin
Protocol: For cell adhesion assays mediated by Ac-GXGDSC (SEQ ID NO: 26), αIIbβ3 CHO K1 cells were incubated on a 5×4 circle (1 mm diameter) array for 1 hour with serum-free F-12K medium supplemented with cRGDFG (SEQ ID NO: 12) (300 μM) and 1× penicillin/streptomycin, followed by media exchange to F-12K medium supplemented with 10% FBS, 1× penicillin/streptomycin and cRGDFG (SEQ ID NO: 12) (300 μM. The substrates were washed with warm PBS, and adherent cells were immediately fixed and permeabilized with 4% formaldehyde and 0.5% Triton-X for 30 minutes. Fixed cells were stained with DAPI, visualized and photographed with a 20× objective as described. The number of adherent cells per field of view was counted using Image J software. Cells were counted in at least three fields for each circle, and each experiment was repeated 3 times. The degree of adhesion is reported as a percentage of cells that adhere relative to control experiments with the peptide Ac-GRGDSC (SEQ ID NO: 28).
CHO K1 cells were used that were transfected with the αIIbβ3 receptor, as described previously (Salsmann et al., 2005). Cells were transfected with pcDNA3.1 vectors that coded for αIIb and β3 using FuGENE6 and analyzed by FACS after labeling with the PAC-1 (anti-αIIbβ3) and H-96 (anti-β3) antibodies. Approximately 30% of the cells expressed the receptor (FIG. 2A). […]

[5] = target: T1, human αIIbβ3 integrin on transfected …; assay: soluble peptide (1 pM to 100 µM) inhibits adhesion of αIIbβ3 CHO K1 cells to peptide monolayers
Protocol: Suspensions of αIIbβ3 CHO K1 cells (100,000/mL) were incubated with cRGDFG (SEQ ID NO: 12) (300 μM) in serum-free F-12K medium with 1 mg/mL BSA (bovine serum albumin) and 1× penicillin/streptomycin for 15 minutes at 37° C. and 5% CO₂. These suspensions were then supplemented with soluble peptides at concentrations ranging from 1 pM to 100 μM and further incubated for 15 minutes at 37° C. and 5% CO₂. Cells were then added to monolayers and incubated at 37° C. and 5% CO₂ for 2 hours, then media was exchanged for F-12K medium supplemented with 10% FBS and 1× penicillin/streptomycin. The substrates were further incubated for 2 hours. The substrates were washed gently with warm PBS, and adherent cells were immediately fixed and permeabilized with 4% formaldehyde and 0.5% Triton-X for 30 minutes. Fixed cells were stained with DAPI, visualized and photographed with a 20× as described previously. The number of adherent cells per field of view was counted using Image J. Cells were counted in at least five fields for each substrate, and each experiment was repeated 3 times. The degree of inhibition is reported as a percentage of cells that adhere relative to control experiments in the absence of soluble peptide.
To verify that the two peptides interact with the same site on αIIbβ3, it was determined whether the peptides GRGDS (SEQ ID NO: 4), […] (SEQ ID NO: 1) and AGDV (SEQ ID NO: 22), in soluble form, could block the attachment of cells to the monolayers presenting these ligands. In these experiments identical suspensions of cells (100,000/mL) were first incubated in serum-free F-12K medium supplemented with cRGDFG (SEQ ID NO: 12) (300 μM) and with the soluble peptides in concentrations ranging from 1 pM to 100 μM and then applied the mixtures to monolayers presenting either the GRGDSC (SEQ ID NO: 11), […] (SEQ ID NO: 21), or AGDVC (SEQ ID NO: 17) peptide (SEQ ID NO: 17) (FIG. 5). Cells were allowed to attach for 2 hours, after which media was exchanged to 10% FBS F-12K medium (supplemented with cRGDFG (SEQ ID NO: 12)) and cultured for an additional 2 hours. […]

Ac-GAGDSC (Ac-GAGDSC-NH2) was tested, and the “cell adhesion on Ac-GXGDSC array relative to Ac-GRGDSC” value [1] was “mediated αIIbβ3 CHO K1 cell adhesion”.

For Ac-GGGDSC (Ac-GGGDSC-NH2), the “cell adhesion on Ac-GXGDSC array relative to Ac-GRGDSC” value [1] was “mediated αIIbβ3 CHO K1 cell adhesion”.

Ac-GIGDSC (Ac-GIGDSC-NH2) was tested, and the “cell adhesion on Ac-GXGDSC array relative to Ac-GRGDSC” value [1] was “mediated αIIbβ3 CHO K1 cell adhesion”.

In the case of Ac-GKGDSC (Ac-GKGDSC-NH2), the “cell adhesion on Ac-GXGDSC array relative to Ac-GRGDSC” value [1] is reported as “mediated αIIbβ3 CHO K1 cell adhesion”.

Ac-GLGDSC (Ac-GLGDSC-NH2) was tested, and the “cell adhesion on Ac-GXGDSC array relative to Ac-GRGDSC” value [1] was “mediated αIIbβ3 CHO K1 cell adhesion”.

With Ac-GVGDSC (Ac-GVGDSC-NH2) the “cell adhesion on Ac-GXGDSC array relative to Ac-GRGDSC” value [1] was “mediated αIIbβ3 CHO K1 cell adhesion”.

With GGRDGSC (scrambled peptide) the “adhesion of αIIbβ3 CHO K1 cells to monolayer presenting the peptide” value [2] was “lack of cell attachment” and the “cell adhesion on Ac-GXGDSC array relative to Ac-GRGDSC” value [1] was “did not adhere”.

In the case of PAC-1, the “effect on adhesion of αIIbβ3 CHO K1 cells to monolayer presenting GRGDSC” value [3] is reported as “prevented cell adhesion to the monolayer”.

B1: HHLGGAKQAGDVC (SEQ ID NO: 21), immobilized on a self-assembled monolayer (peptide)
peptide: HHLGGAKQAGDVC-NH2
modifications: not fully specified (residue 13); also: C-terminal Cys thiol linked to maleimide of monolayer
notes: also called 0.5% HHLGGAKQAGDVC SAM; γ peptide
B1: binds [4].

B2: HHLGGAKQAGDV (SEQ ID NO: 1), soluble peptide (peptide)
peptide: HHLGGAKQAGDV-NH2
notes: Synthetic peptide; also called γ peptide
B2: binds [5].

B3: GRGDS (SEQ ID NO: 4), soluble peptide (peptide)
peptide: GRGDS-NH2
notes: also called soluble GRGDS
B3: binds [5].

B4: AGDV (SEQ ID NO: 22), soluble peptide (peptide)
peptide: AGDV-NH2
notes: also called soluble AGDV
B4: binds [5].

B5: GRGDSC (SEQ ID NO: 11), immobilized on a self-assembled monolayer (peptide)
peptide: GRGDSC-NH2
modifications: not fully specified (residue 6); also: C-terminal Cys thiol linked to maleimide of monolayer
notes: also called 0.5% GRGDSC SAM
B5: binds [4].

From patent publication US20120252730A1, “PLATELET AGGREGATION INHIBITORS” (UNIVERSITY OF CHICAGO, priority 2009, published 2012)
